Measurements as given in PubChem BioAssay (NCI).
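How tested: cells in 96-well plates exposed to compound for 48 hours at five concentrations. Here, GI50 denotes the concentration required for 50% inhibition of growth. TGI is the concentration that stops growth completely.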

Key:
Assay in all cases: NCI-60 cell line screen, 48 h
DU-145 prostate = tested on: DU-145 prostate
SNB-75 CNS = tested on: SNB-75 CNS
T-47D breast = tested on: T-47D breast
NCI-H460 lung = tested on: NCI-H460 lung
SR leukemia = tested on: SR leukemia
M14 melanoma = tested on: M14 melanoma
SK-MEL-2 melanoma = tested on: SK-MEL-2 melanoma
TK-10 renal = tested on: TK-10 renal
U251 CNS = tested on: U251 CNS
SF-295 CNS = tested on: SF-295 CNS
MCF7 breast = tested on: MCF7 breast
HCC-2998 colon = tested on: HCC-2998 colon
HT29 colon = tested on: HT29 colon
HCT-116 colon = tested on: HCT-116 colon
NCI-H23 lung = tested on: NCI-H23 lung
786-0 renal = tested on: 786-0 renal
PC-3 prostate = tested on: PC-3 prostate
CAKI-1 renal = tested on: CAKI-1 renal
A549 NSCLC = tested on: A549 NSCLC
OVCAR-5 ovarian = tested on: OVCAR-5 ovarian
A498 renal = tested on: A498 renal
OVCAR-3 ovarian = tested on: OVCAR-3 ovarian
MALME-3M melanoma = tested on: MALME-3M melanoma
COLO 205 colon = tested on: COLO 205 colon
UACC-257 melanoma = tested on: UACC-257 melanoma
RXF 393 renal = tested on: RXF 393 renal
IGROV1 ovarian = tested on: IGROV1 ovarian
SF-268 CNS = tested on: SF-268 CNS
EKVX NSCLC = tested on: EKVX NSCLC
SK-MEL-28 melanoma = tested on: SK-MEL-28 melanoma
HCT-15 colon = tested on: HCT-15 colon
CCRF-CEM leukemia = tested on: CCRF-CEM leukemia
OVCAR-4 ovarian = tested on: OVCAR-4 ovarian
SW-620 colon = tested on: SW-620 colon
ACHN renal = tested on: ACHN renal
NCI-H522 lung = tested on: NCI-H522 lung
UO-31 renal = tested on: UO-31 renal
LOX IMVI melanoma = tested on: LOX IMVI melanoma
KM12 colon = tested on: KM12 colon
SF-539 CNS = tested on: SF-539 CNS
SN12C renal = tested on: SN12C renal
HOP-62 NSCLC = tested on: HOP-62 NSCLC
MOLT-4 leukemia = tested on: MOLT-4 leukemia
BT-549 breast = tested on: BT-549 breast
OVCAR-8 ovarian = tested on: OVCAR-8 ovarian
UACC-62 melanoma = tested on: UACC-62 melanoma
SK-OV-3 ovarian = tested on: SK-OV-3 ovarian
RPMI-8226 leukemia = tested on: RPMI-8226 leukemia
SK-MEL-5 melanoma = tested on: SK-MEL-5 melanoma
HS 578T breast = tested on: HS 578T breast
MDA-MB-231 breast = tested on: MDA-MB-231 breast
HL-60(TB) leukemia = tested on: HL-60(TB) leukemia
MDA-MB-435 = tested on: MDA-MB-435
SNB-19 CNS = tested on: SNB-19 CNS
K-562 leukemia = tested on: K-562 leukemia
NCI/ADR-RES ovarian = tested on: NCI/ADR-RES ovarian

`Nc1nc(N)c(C=Nc2ccc(Br)cc2)c(Nc2ccc(Br)cc2)n1` was tested, and the GI50 (DU-145 prostate) was 12.3 µM, the TGI (DU-145 prostate) was 28.6 µM and the GI50 (SNB-75 CNS) was 5.02 µM. It also gave a TGI (SNB-75 CNS) of 18.6 µM, a GI50 (T-47D breast) of 4.22 µM and a TGI (T-47D breast) of 18.4 µM. It also gave a GI50 (NCI-H460 lung) of 4.39 µM, a TGI (NCI-H460 lung) of 20.1 µM and a GI50 (SR leukemia) of 2.61 µM. The TGI (SR leukemia) was 10.2 µM, the GI50 (M14 melanoma) was 9.59 µM and the TGI (M14 melanoma) was 21.4 µM. It also gave a GI50 (SK-MEL-2 melanoma) of 10.2 µM, a TGI (SK-MEL-2 melanoma) of 23 µM and a GI50 (TK-10 renal) of 13 µM. It also gave a TGI (TK-10 renal) of 37.6 µM, a GI50 (U251 CNS) of 12 µM and a TGI (U251 CNS) of 30.1 µM. For the same compound, the GI50 (SF-295 CNS) was 11.3 µM, the TGI (SF-295 CNS) was 38.5 µM and the GI50 (MCF7 breast) was 2.57 µM. The TGI (MCF7 breast) was 15.1 µM, the GI50 (HCC-2998 colon) was 3.89 µM and the TGI (HCC-2998 colon) was 14 µM. The GI50 (HT29 colon) was 5.81 µM, the TGI (HT29 colon) was greater than 100 µM and the GI50 (HCT-116 colon) was 6.46 µM. The TGI (HCT-116 colon) was 19.2 µM, the GI50 (NCI-H23 lung) was 10 µM and the TGI (NCI-H23 lung) was 27.3 µM. For the same compound, the GI50 (786-0 renal) was 11.1 µM, the TGI (786-0 renal) was 23 µM and the GI50 (PC-3 prostate) was 8.34 µM. It also gave a TGI (PC-3 prostate) of 26.4 µM, a GI50 (CAKI-1 renal) of 3.45 µM and a TGI (CAKI-1 renal) of 18.7 µM. The GI50 (A549 NSCLC) was 12.4 µM, the TGI (A549 NSCLC) was 29.6 µM and the GI50 (OVCAR-5 ovarian) was 9.98 µM. It also gave a TGI (OVCAR-5 ovarian) of 21.5 µM, a GI50 (A498 renal) of 10.6 µM and a TGI (A498 renal) of 22.4 µM. The GI50 (OVCAR-3 ovarian) was 11.8 µM, the TGI (OVCAR-3 ovarian) was 25.3 µM and the GI50 (MALME-3M melanoma) was 17.8 µM. For the same compound, the TGI (MALME-3M melanoma) was 39.7 µM, the GI50 (COLO 205 colon) was 14.5 µM and the TGI (COLO 205 colon) was 34.6 µM. For the same compound, the GI50 (UACC-257 melanoma) was 14.7 µM, the TGI (UACC-257 melanoma) was 30.7 µM and the GI50 (RXF 393 renal) was 2.89 µM. It also gave a TGI (RXF 393 renal) of 13.6 µM, a GI50 (IGROV1 ovarian) of 8.72 µM and a TGI (IGROV1 ovarian) of 46.2 µM. It also gave a GI50 (SF-268 CNS) of 8.16 µM, a TGI (SF-268 CNS) of 27.1 µM and a GI50 (EKVX NSCLC) of 10.5 µM. It also gave a TGI (EKVX NSCLC) of 24.1 µM, a GI50 (SK-MEL-28 melanoma) of 12.3 µM and a TGI (SK-MEL-28 melanoma) of 24.7 µM. For the same compound, the GI50 (HCT-15 colon) was 7.44 µM, the TGI (HCT-15 colon) was 34.4 µM and the GI50 (CCRF-CEM leukemia) was 9.3 µM. The TGI (CCRF-CEM leukemia) was 26.2 µM, the GI50 (OVCAR-4 ovarian) was 10.6 µM and the TGI (OVCAR-4 ovarian) was 25 µM. It also gave a GI50 (SW-620 colon) of 14.1 µM, a TGI (SW-620 colon) of 99.1 µM and a GI50 (ACHN renal) of 8.96 µM. The TGI (ACHN renal) was 28 µM, the GI50 (NCI-H522 lung) was 8.2 µM and the TGI (NCI-H522 lung) was 33.2 µM. The GI50 (UO-31 renal) was 6.55 µM, the TGI (UO-31 renal) was 28.1 µM and the GI50 (LOX IMVI melanoma) was 3.01 µM. It also gave a TGI (LOX IMVI melanoma) of 16.4 µM, a GI50 (KM12 colon) of 4.22 µM and a TGI (KM12 colon) of 18.4 µM. The GI50 (SF-539 CNS) was 12.1 µM, the TGI (SF-539 CNS) was 24.4 µM and the GI50 (SN12C renal) was 8.19 µM. For the same compound, the TGI (SN12C renal) was 33.6 µM, the GI50 (HOP-62 NSCLC) was 10.5 µM and the TGI (HOP-62 NSCLC) was 22.5 µM. For the same compound, the GI50 (MOLT-4 leukemia) was 10.7 µM, the TGI (MOLT-4 leukemia) was 28.5 µM and the GI50 (BT-549 breast) was 12.9 µM. The TGI (BT-549 breast) was 25.5 µM, the GI50 (OVCAR-8 ovarian) was 15.2 µM and the TGI (OVCAR-8 ovarian) was 40.7 µM. The GI50 (UACC-62 melanoma) was 12.1 µM, the TGI (UACC-62 melanoma) was 24.4 µM and the GI50 (SK-OV-3 ovarian) was 15.1 µM. The TGI (SK-OV-3 ovarian) was 28.4 µM, the GI50 (RPMI-8226 leukemia) was 16.6 µM and the TGI (RPMI-8226 leukemia) was 38.7 µM. For the same compound, the GI50 (SK-MEL-5 melanoma) was 13.5 µM, the TGI (SK-MEL-5 melanoma) was 26.3 µM and the GI50 (HS 578T breast) was 8.96 µM. It also gave a TGI (HS 578T breast) of 26.8 µM, a GI50 (MDA-MB-231 breast) of 7.36 µM and a TGI (MDA-MB-231 breast) of 28.3 µM. It also gave a GI50 (HL-60(TB) leukemia) of 15.6 µM, a TGI (HL-60(TB) leukemia) of 49.2 µM and a GI50 (MDA-MB-435) of 10.5 µM. The TGI (MDA-MB-435) was 27.6 µM, the GI50 (SNB-19 CNS) was 12.4 µM and the TGI (SNB-19 CNS) was 32.4 µM. It also gave a GI50 (K-562 leukemia) of 2.91 µM, a TGI (K-562 leukemia) of 8.68 µM and a GI50 (NCI/ADR-RES ovarian) of 5.54 µM. For the same compound, the TGI (NCI/ADR-RES ovarian) was 26.3 µM.
